According to patent US12257246B2, “Composition of 2,4,6-trifluoro-n-[6-(1-methyl-piperidin-4-carbonyl)-pyridin-2-yl[-benzamide” (CoLucid Pharmaceuticals, Inc., priority 2009, dated 2025):

Tests used:
[1] = test system: migraine; details: in vivo; cited from earlier work
[2] = test system: rabbit saphenous vein; details: EC50 divided by %max KCl
[3] = test system: rabbit saphenous vein; assay: cells; details: Oryctolagus cuniculus, read-out: saphenous vein contraction EC50

SMILES	efficacy in acute treatment of migraine [1]	corrected vasoconstriction EC50 [2]	EC50 [3]
CN1CCC(c2c[nH]c3ccc(NC(=O)c4ccc(F)cc4)cc23)CC1 [LY334370]	proved effective	–	–
CNS(=O)(=O)Cc1ccc2[nH]cc(CCN(C)C)c2c1 [sumatriptan]	–	10.3 nM	660 nM
